Columns and labels:
[1] = target: Carboxylic ester hydrolase (Equus caballus, UniProt Q9N1N9); test: AChE and BuChE Inhibition Assay; conditions: pH 8; 25 °C
Description: (§1) This spectrophotometric assay is based on the reaction of 5,5-dithio-bis(2-nitrobenzoic)acid (DTNB) with thiocholine to yield a colored product. Shimadzu (Kyoto, Japan) UV-1700 UV-vis spectrophotometer was used to record the measurements. The enzyme solutions were prepared at 2.5 units/mL concentrationin 1% gelatin solution. BChE/AChE and compound solutions (50 μL each) in 2% DMSO at 10^-1-10^-6 mM concentration were added to 3 mL phosphate buffer (pH 8 &plusnm; 0.1)followed by incubation for 5 min at 25 °C. The reaction was commenced by the addition of acetylthiocholine iodide (ATC) (10 μL) and DTNB (50 μL) to the enzyme-inhibitor mixture. […] The blank reading contained 10 μL substrate, 50 μL DTNB, 50 μL (2%) DMSO, and 3 mL buffer. The reaction was performed in triplicate.

[2] = target: Acetylcholinesterase (Electrophorus electricus, UniProt O42275); test: AChE and BuChE Inhibition Assay; conditions: pH 8; 25 °C
Sequence of Acetylcholinesterase (O42275 whole entry): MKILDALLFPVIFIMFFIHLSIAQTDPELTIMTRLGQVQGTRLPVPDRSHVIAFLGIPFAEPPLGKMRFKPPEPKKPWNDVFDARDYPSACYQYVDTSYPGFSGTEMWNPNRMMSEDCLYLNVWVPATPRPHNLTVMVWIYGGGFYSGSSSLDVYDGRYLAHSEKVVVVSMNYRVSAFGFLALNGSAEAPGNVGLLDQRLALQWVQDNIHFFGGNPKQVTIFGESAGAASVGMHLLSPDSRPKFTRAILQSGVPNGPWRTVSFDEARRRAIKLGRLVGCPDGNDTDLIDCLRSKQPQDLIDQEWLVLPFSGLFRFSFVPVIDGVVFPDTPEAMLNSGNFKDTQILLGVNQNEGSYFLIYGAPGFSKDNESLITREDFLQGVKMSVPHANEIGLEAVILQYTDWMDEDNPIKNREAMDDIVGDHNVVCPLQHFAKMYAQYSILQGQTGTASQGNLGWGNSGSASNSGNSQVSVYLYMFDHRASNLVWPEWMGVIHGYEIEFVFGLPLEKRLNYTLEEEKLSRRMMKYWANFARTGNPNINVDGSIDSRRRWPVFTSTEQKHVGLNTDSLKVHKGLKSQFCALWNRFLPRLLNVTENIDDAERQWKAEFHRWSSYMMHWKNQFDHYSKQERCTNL
Description: as §1

[3] = target: T1, Amine oxidase [flavin-containing] B (Rattus norvegicus, UniProt P19643); test: Monoamine Oxidase Assay; conditions: pH 7.4; 38 °C
T1 sequence (P19643 whole entry): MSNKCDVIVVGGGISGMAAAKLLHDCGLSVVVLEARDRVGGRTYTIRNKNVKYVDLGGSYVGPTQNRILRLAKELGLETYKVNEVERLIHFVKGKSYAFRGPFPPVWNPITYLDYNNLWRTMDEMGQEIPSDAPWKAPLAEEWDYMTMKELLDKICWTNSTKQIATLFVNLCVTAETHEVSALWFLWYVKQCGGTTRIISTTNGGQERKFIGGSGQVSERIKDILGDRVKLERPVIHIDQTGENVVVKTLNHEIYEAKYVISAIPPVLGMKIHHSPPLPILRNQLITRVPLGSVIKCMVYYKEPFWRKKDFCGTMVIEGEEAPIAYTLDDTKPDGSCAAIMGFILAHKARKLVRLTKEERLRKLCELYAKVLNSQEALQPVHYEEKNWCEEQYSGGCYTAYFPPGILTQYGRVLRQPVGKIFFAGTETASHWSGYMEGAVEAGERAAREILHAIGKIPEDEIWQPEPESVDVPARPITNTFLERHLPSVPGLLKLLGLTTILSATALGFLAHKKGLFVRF

[4] = target: T2, Amine oxidase [flavin-containing] A (Rattus norvegicus, UniProt P21396); test: Monoamine Oxidase Assay; conditions: pH 7.4; 38 °C
T2 sequence (P21396 whole entry): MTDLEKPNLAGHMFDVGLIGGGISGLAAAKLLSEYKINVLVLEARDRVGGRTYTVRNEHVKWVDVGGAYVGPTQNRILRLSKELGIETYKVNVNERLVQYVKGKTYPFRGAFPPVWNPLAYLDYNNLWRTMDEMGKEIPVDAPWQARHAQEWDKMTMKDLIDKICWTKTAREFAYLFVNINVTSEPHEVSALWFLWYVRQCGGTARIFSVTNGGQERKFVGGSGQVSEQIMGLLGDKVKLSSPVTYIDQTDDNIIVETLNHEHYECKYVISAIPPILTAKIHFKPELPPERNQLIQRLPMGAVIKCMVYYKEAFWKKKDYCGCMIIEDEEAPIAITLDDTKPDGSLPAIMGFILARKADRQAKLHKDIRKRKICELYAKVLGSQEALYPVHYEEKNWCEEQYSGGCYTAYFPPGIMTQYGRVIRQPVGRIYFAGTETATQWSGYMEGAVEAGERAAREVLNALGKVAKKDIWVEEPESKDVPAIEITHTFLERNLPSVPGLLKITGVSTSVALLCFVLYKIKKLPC

Sequence of Carboxylic ester hydrolase (Q9N1N9 whole entry): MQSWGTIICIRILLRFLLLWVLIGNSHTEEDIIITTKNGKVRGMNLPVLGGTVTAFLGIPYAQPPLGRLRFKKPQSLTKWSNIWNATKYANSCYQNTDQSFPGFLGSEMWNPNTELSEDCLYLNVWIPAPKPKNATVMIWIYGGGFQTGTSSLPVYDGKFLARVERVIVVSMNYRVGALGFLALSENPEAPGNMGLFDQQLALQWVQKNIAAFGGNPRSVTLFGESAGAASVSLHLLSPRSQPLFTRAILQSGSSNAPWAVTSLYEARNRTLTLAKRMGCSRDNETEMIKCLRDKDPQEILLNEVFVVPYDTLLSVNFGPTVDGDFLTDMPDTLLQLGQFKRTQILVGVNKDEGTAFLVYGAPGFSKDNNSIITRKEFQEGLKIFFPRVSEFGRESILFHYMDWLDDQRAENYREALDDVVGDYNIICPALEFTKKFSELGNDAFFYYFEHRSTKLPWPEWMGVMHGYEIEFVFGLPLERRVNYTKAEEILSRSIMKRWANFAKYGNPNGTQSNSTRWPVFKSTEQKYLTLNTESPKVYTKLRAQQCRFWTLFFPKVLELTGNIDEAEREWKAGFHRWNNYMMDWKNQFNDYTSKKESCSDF

| Compound | IC50 [1] | IC50 [2] | IC50 [3] | IC50 [4] |
| --- | --- | --- | --- | --- |
| COc1cccc(/C=C2\CCc3ccc(F)cc3C2=O)c1Cl [(2E)-2-[(2-chloro-3-methoxyphenyl)methylidene]-7-fluoro-1,2,3,4-tetrahydronaphthalen-1-one (3ab)] | > 100 µM | > 100 µM | 6.9 µM | 19.6 µM |
| COc1cccc(/C=C2\CCc3ccc([N+](=O)[O-])cc3C2=O)c1Cl [(2E)-2-[(2-chloro-3-methoxyphenyl)methylidene]-7-nitro-1,2,3,4-tetrahydronaphthalen-1-one (3ae)] | 27.9 µM | 9.14 µM | 6.8 µM | 7.23 µM |
| COc1cc(/C=C2\CCc3ccc(Br)cc3C2=O)c(Br)c(OC)c1OC [(2E)-7-bromo-2-[(2-bromo-3,4,5-trimethoxyphenyl)methylidene]-1,2,3,4-tetrahydronaphthalen-1-one (3aa)] | > 100 µM | > 100 µM | 44.6 µM | > 100 µM |
| COc1ccc(/C=C2\CCc3ccc(Br)cc3C2=O)c(Cl)c1OC [(2E)-7-bromo-2-[(2-chloro-3,4-dimethoxyphenyl)methylidene]-1,2,3,4-tetrahydronaphthalen-1-one (3z)] | > 100 µM | > 100 µM | 56.4 µM | > 100 µM |
| COc1cccc(/C=C2\CCc3ccc(Br)cc3C2=O)c1Cl [(2E)-7-bromo-2-[(2-chloro-3-methoxyphenyl)methylidene]-1,2,3,4-tetrahydronaphthalen-1-one (3y)] | > 100 µM | > 100 µM | 67.9 µM | > 100 µM |
| COc1ccc(/C=C2\CCc3ccc(Cl)cc3C2=O)c(Cl)c1OC [(2E)-7-chloro-2-[(2-chloro-3,4-dimethoxyphenyl)methylidene]-1,2,3,4-tetrahydronaphthalen-1-one (3k)] | 56.7 µM | > 100 µM | > 100 µM | > 100 µM |
| COc1cccc(/C=C2\CCc3ccc(Cl)cc3C2=O)c1Cl [(2E)-7-chloro-2-[(2-chloro-3-methoxyphenyl)methylidene]-1,2,3,4-tetrahydronaphthalen-1-one (3j)] | > 100 µM | > 100 µM | > 100 µM | > 100 µM |

Source: BindingDB's records for doi:10.1111/cbdd.12822 (Wuhan University of Technology, 2016)
